Blank lines part the entries; values can stand above or below the compound they belong to.
Tests used:
A549 [1] = experiment: Antiproliferative activity against human A549 cells assessed as cell growth inhibition at 5 uM in presence of doxorubicin by CellTiter-Glo luminescent assay relative to control; assay type: functional; set-up: scale not given: the % may be the effect or the level left
A549 [2] = experiment: Antiproliferative activity against human A549 cells assessed as cell growth inhibition at 5 uM in presence of etoposide by CellTiter-Glo luminescent assay relative to control; assay type: functional; set-up: scale not given: the % may be the effect or the level left
[3] = molecular target: Mitogen-activated protein kinase 3 (Homo sapiens) (UniProt P27361); experiment: Inhibition of ERK1 (unknown origin) at 25 nM relative to control
[4] = molecular target: Vascular endothelial growth factor receptor 2 (Homo sapiens, UniProt P35968); experiment: Inhibition of VEGFR2 (unknown origin) at 25 nM using Poly(Glu, Tyr) as substrate by Kinase-Glo plus luminescent kinase assay
A549 [5] = experiment: Antiproliferative activity against human A549 cells assessed as cell growth inhibition measured after 24 hrs by MTT assay; assay type: functional, cell-based; details: A549, 24 h
PC-3 = experiment: Antiproliferative activity against human PC-3 cells assessed as cell growth inhibition measured after 24 hrs by MTT assay; assay type: functional, cell-based; details: PC-3, 24 h

Vascular endothelial growth factor receptor 2, sequence (P35968 whole entry): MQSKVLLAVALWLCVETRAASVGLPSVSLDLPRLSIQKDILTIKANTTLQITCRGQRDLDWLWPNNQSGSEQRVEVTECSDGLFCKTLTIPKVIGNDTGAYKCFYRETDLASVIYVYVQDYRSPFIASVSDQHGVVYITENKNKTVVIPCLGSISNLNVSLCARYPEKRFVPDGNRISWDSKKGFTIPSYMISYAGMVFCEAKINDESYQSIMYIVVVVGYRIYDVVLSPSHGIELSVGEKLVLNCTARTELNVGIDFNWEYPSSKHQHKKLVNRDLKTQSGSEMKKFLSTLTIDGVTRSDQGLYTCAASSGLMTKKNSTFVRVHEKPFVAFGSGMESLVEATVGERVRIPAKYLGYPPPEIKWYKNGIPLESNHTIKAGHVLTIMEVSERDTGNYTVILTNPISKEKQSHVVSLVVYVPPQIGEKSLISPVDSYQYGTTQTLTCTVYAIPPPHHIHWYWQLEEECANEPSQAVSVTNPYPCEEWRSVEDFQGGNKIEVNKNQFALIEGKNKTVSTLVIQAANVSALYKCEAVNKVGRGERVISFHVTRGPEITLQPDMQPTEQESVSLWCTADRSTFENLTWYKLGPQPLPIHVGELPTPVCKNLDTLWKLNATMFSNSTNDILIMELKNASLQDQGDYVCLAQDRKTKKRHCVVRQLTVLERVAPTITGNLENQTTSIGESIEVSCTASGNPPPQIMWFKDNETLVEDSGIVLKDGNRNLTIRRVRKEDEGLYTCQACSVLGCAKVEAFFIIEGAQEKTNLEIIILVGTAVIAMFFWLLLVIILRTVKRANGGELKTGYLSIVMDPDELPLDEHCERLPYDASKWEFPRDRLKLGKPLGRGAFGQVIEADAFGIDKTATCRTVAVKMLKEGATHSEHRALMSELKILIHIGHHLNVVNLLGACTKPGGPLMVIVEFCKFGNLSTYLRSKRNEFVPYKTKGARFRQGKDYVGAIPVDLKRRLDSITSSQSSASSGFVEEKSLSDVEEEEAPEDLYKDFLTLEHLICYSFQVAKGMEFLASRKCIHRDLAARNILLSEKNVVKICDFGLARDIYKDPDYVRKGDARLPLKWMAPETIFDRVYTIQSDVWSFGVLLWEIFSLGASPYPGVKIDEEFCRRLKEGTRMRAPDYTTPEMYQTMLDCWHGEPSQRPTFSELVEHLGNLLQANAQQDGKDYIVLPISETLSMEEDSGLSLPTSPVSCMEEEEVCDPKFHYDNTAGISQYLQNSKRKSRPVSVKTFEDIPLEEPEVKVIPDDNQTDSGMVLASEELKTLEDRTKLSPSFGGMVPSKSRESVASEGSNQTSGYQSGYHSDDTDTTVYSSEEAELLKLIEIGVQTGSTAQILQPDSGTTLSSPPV
Mitogen-activated protein kinase 3 (Homo sapiens), sequence (P27361 whole entry): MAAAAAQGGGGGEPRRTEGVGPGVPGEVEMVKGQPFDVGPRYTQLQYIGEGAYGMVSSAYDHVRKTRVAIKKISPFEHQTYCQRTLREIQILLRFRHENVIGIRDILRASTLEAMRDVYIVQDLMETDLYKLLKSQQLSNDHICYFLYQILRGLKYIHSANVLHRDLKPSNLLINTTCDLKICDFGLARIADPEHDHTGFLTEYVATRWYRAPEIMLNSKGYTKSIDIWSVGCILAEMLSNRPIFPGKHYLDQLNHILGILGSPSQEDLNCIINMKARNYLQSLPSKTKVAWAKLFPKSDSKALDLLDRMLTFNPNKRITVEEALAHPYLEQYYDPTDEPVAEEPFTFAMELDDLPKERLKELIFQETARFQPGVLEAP

Compound: COc1ccc(-c2nc3ccc(C(=O)Nc4cn(C)c(C(=O)Nc5cc(C(=O)NCCCN(C)C)n(CCCN)c5)n4)cc3[nH]2)cc1
Activity (A549 [1]): 22%
Activity (A549 [2]): 50%

inhibition [3]: 50%
IC50 [4]: 0.0136 µM
Compound: Cc1cccc(NC(=O)Nc2ccc(Oc3ncnc4[nH]c(C)c(C)c34)cc2)c1

inhibition [3]: 50%
IC50 [4]: 0.0119 µM
Compound: Cc1cccc(NC(=O)Nc2ccc(Nc3ncnc4[nH]c(C)c(C)c34)cc2)c1

IC50 (A549 [5]): 1.48 µM
Compound: Cn1ccc2c(Nc3cccc(Br)c3)nc(NC(=O)Nc3ccc(F)c(C(F)(F)F)c3)nc21

IC50 (A549 [5]): 0.35 µM
Compound: Cn1ccc2c(Nc3ccc(F)c(Cl)c3)nc(NC(=O)Nc3cccc(C(F)(F)F)c3)nc21

IC50 (A549 [5]): 1.56 µM
Compound: Cn1ccc2c(Nc3ccc(Cl)cc3)nc(NC(=O)Nc3ccc(F)cc3)nc21

IC50 (PC-3): 1.04 µM
Compound: Cn1ccc2c(Nc3cccc(Br)c3)nc(NC(=O)Nc3ccc(Cl)c(C(F)(F)F)c3)nc21

From ChEMBL document CHEMBL5230115, “Bioactive pyrrole-based compounds with target selectivity” (Eur J Med Chem, 2020)
